Results from US11052154B2, “Ras protein degradation inducing molecule and pharmaceutical composition” (Tokyo University of Science Foundation, priority 2016, dated 2021).

Assays:
wild-type K-Ras protein = biological target: T1, wild-type K-Ras protein (Homo sapiens, UniProt P01116); test: Degradation (knockdown) of wild-type K-Ras protein forcibly expressed in HeLa cells, Western blot analysis; format: cell-based; conditions: FIG. 2
T1 construct: expressed in transfected cells; host or cells: HeLa
Description: In Example 3, degradation (knockdown) of a forcibly expressed wild-type K-Ras protein in HeLa cells through TUS-007 was evaluated by Western blot analysis.
A plasmid expressing the wild-type K-Ras protein (K-Ras-WT) was prepared, as in Example 2.
As in Example 2, the plasmid was introduced into HeLa cells to transiently overexpress the wild-type K-Ras protein (specifically, a fusion protein of the wild-type K-Ras protein and GFP through a HA tag) or a DsRed protein for comparison in the cells. HeLa cells into which the plasmid had been introduced were seeded in a 24-well plate at a cell density of 4×10^4 cells/well, and then cultured under conditions of 37° C. and 5 vol % CO2 for 40 hours.
Culture was performed for 40 hours after introduction of the plasmid, and then TUS-007 was added to HeLa cells as follows. […]
After electrophoresis, proteins were transferred to a PVDF membrane (Immobion™-P, Millipore) under conditions of 100 V and 120 minutes using a tank-type blotting device and a transfer buffer (25 mM Tris-HCl, 195 mM glycine, 0.01% SDS, 15% methanol). […] Subsequently, the membrane was treated with a chemiluminescence reagent Immobilon™ Western (Millipore), and then chemiluminescence was detected using a lumino image analyzer LAS-3000 (FUJIFILM Corporation). […]

SW1990 cells = test: Anti-tumor effect in mice subcutaneously implanted with human pancreatic cancer cells (SW1990 cells); format: in vivo, mouse; conditions: BALB/c nu/nu mice, SW1990 subcutaneous, oral 80 mg/kg once every 3 days, 7 doses, vs Vehicle; FIG. 9A
Description: In Example 10, TUS-007 was administered to mice subcutaneously implanted with human pancreatic cancer cells (SW1990 cells), and an anti-tumor effect was evaluated.
(§1) To the subcutis of T-cell deficient mice (BALB/cAJcl-nu/nu, 4 weeks old, female) (CLEA Japan, Inc.), 0.1 mL of cell suspension in which SW1990 cells were suspended in PBS so as to be 1×10^7 cells/mL was implanted using a 26-gauge injection needle (TERUMO CORPORATION).
(§2) Immediately before administration, TUS-007 was dissolved in DMSO, 0.5 mass % carboxymethyl cellulose (Code No. 039-01335, Wako Pure Chemical Industries, Ltd.) solution was added so that the concentration of DMSO became 2.5 vol %, followed by pulverization by ultrasonic treatment to prepare a suspension of TUS-007. When the tumors of mice with subcutaneously implanted SW1990 cells grew to a size of approximately 100 mm^3, the prepared TUS-007 suspension was orally administered by gavage with a gastric tube (Code No. 5202K, Fuchigami Kikai) at a dose of 80 mg/kg body weight once every 3 days for a total of 7 doses (n=6 to 9). As a control (Vehicle), 0.5 mass % carboxymethyl cellulose solution containing 2.5 vol % DMSO was administered in the same manner.
The tumor volume (mm^3) was calculated by measuring the tumor size using a caliper, and using the formula (minor axis diameter)^2×major axis diameter/2.

[1] = biological target: T2, G12V mutant K-Ras protein (Homo sapiens, UniProt P01116, G12V); test: Degradation (knockdown) of G12V mutant K-Ras protein forcibly expressed in HeLa cells, FACS analysis; format: cell-based; conditions: FIG. 3
T2 construct: expressed in transfected cells; host or cells: HeLa
Description: DMSO was used as a control.

[2] = Body weight change and general condition of mice with subcutaneously implanted SW1990 cells; format: in vivo, mouse; conditions: oral 80 mg/kg once every 3 days, 7 doses
Description: as §1, §2

T1 sequence (P01116 1-188 isoform P01116-2): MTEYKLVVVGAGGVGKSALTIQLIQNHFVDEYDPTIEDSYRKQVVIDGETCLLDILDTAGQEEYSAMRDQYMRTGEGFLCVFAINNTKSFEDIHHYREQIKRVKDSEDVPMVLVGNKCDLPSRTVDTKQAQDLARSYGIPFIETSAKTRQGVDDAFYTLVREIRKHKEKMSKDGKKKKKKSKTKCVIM
T2 sequence (P01116 1-188 isoform P01116-2 G12V): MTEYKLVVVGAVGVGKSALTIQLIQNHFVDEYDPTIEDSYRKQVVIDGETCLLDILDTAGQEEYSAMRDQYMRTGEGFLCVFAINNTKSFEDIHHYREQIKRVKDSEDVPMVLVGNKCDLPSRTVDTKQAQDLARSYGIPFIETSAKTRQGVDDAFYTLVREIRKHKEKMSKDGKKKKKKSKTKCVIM

**Q.** With `CCC(C)[C@H](NC(=O)CCCCCCNC(=O)[C@H](CC(C)C)NC(=O)CNC(=O)c1cc(Cl)ccc1Cl)C(=O)Nc1ccc2[nH]c(Cc3c[nH]c4ccccc34)nc2c1` (stereo in doubt) [TUS-007] as the compound, how does the “amount of the wild-type K-Ras protein (Western blot)” value (wild-type K-Ras protein; 24 hours after addition, relative to control (DMSO)) read?
**A.** the amount of the wild-type K-Ras protein was reduced

**Q.** What about the “amount of the wild-type K-Ras protein when both TUS-007 and MLN2238 were added (Western blot)” value (wild-type K-Ras protein; MLN2238 co-added, vs control (DMSO)) of the same compound?
**A.** the amount of the wild-type K-Ras protein was increased as compared with the amount of the control (DMSO)

**Q.** And the “increase of the tumor volume” value (SW1990 cells)?
**A.** the increase of the tumor volume was significantly suppressed (p=0.004)

**Q.** What about the “degradation of the G12V mutant K-Ras protein when both TUS-007 and MLN2238 were added” value ([1]; MLN2238 co-added, compared with TUS-007 alone) of the same compound?
**A.** G12D mutant and G12V mutant K-Ras protein degradation was inhibited

**Q.** And the “degradation (knockdown) of the G12V mutant K-Ras protein (shift of GFP/DsRed ratio graph)” value ([1]; vs control (DMSO))?
**A.** degradation of the G12D mutant and the G12V mutant K-Ras protein was induced

**Q.** And the “general condition of the mice” value [2]?
**A.** no abnormality in the general condition of the mice

**Q.** What about the body weight changes ([2]; vs Vehicle, FIG. 9B) of the same compound?
**A.** no significant differences in body weight changes
